Here are results for 19 compounds from PubChem BioAssay AID256 (DTP/NCI, 2004).

Values joined by “and” are separate entries in the source; they are usually repeats but may differ in a detail not shown here. Equal entries are not always repeated. Toxic doses and inconclusive results are not listed.

This test relates to CD2F1 mice, L1210 leukemia ip, survival T/C. Briefly: NCI In Vivo Anticancer Drug Screen. Data for tumor model L1210 Leukemia (intraperitoneal) in CD2F1 (CDF1) mice. The settings on record: higher = longer survival. The method in brief: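 Transplantable tumor in mice; compound-treated vs vehicle-treated groups. Read-out = treated/control ratio of the measured endpoint.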
Where [1] appears, read: endpoint: mean survival time, dose: 25.0 mg/kg/injection, schedule: Q04DX003 (ip), vehicle: saline with Tween-80.
Setting [2] is: endpoint: mean survival time, dose: 100.0 mg/kg/injection, schedule: Q04DX003 (ip), vehicle: saline with Tween-80.
Setting [3] is: endpoint: mean survival time, dose: 200.0 mg/kg/injection, schedule: Q04DX003 (ip), vehicle: saline with Tween-80.
Where [4] appears, read: endpoint: mean survival time, dose: 400.0 mg/kg/injection, schedule: Q04DX003 (ip), vehicle: saline with Tween-80.
Setting [5] is: endpoint: mean survival time, dose: 100.0 mg/kg/injection, schedule: Q01DX009 (ip), vehicle: saline with Tween-80.
Where [6] appears, read: endpoint: mean survival time, dose: 100.0 mg/kg/injection, schedule: Q04DX003 (ip), vehicle: saline.
Where [7] appears, read: endpoint: mean survival time, dose: 200.0 mg/kg/injection, schedule: Q01DX009 (ip), vehicle: saline with Tween-80.
Setting [8] is: endpoint: mean survival time, dose: 400.0 mg/kg/injection, schedule: Q01DX009 (ip), vehicle: saline with Tween-80.

`O=[N+]([O-])O.O=[N+]([O-])O.[NH-]C(c1ccccc1)C([NH-])c1ccccc1.[Pt+2]` (stereo not drawn): the T/C reads like this: (endpoint: mean survival time, dose: 6.25 mg/kg/injection, schedule: Q04DX003 (ip), vehicle: saline) 168 % of control; (endpoint: mean survival time, dose: 12.5 mg/kg/injection, schedule: Q04DX003 (ip), vehicle: saline with Tween-80) 158 % of control; (endpoint: mean survival time, dose: 12.5 mg/kg/injection, schedule: Q04DX003 (ip), vehicle: saline) 189 % of control; under setting [1], 168 % of control; (endpoint: mean survival time, dose: 25.0 mg/kg/injection, schedule: Q04DX003 (ip), vehicle: saline) 195 % of control.
With `OCc1ccccc1OC1OC(CO)C(O)C(O)C1O` (stereo not drawn), the T/C (endpoint: mean survival time, dose: 50.0 mg/kg/injection, schedule: Q01DX009 (ip), vehicle: Klucel (hydroxypropylcellulose) (HPC)) is 96 % of control; the T/C (endpoint: mean survival time, dose: 100.0 mg/kg/injection, schedule: Q01DX009 (ip), vehicle: Klucel (hydroxypropylcellulose) (HPC)) was 101 % of control; the T/C (endpoint: mean survival time, dose: 200.0 mg/kg/injection, schedule: Q01DX009 (ip), vehicle: Klucel (hydroxypropylcellulose) (HPC)) was 108 % of control.
`Nc1nc2ncn(O)c2c(=O)[nH]1`: the T/C is, setting by setting: (endpoint: median survival time, dose: 3.12 mg/kg/injection, schedule: Q01DX009 (ip), vehicle: other) 176 % of control; (endpoint: median survival time, dose: 6.25 mg/kg/injection, schedule: Q01DX009 (ip), vehicle: other) 195 % of control; (endpoint: median survival time, dose: 6.25 mg/kg/injection, schedule: Q01DX009 (ip), vehicle: water) 168 % of control and 172 % of control; (endpoint: median survival time, dose: 12.5 mg/kg/injection, schedule: Q01DX009 (ip), vehicle: other) 162 % of control; (endpoint: median survival time, dose: 12.5 mg/kg/injection, schedule: Q01DX009 (ip), vehicle: water) 168 % of control and 234 % of control; (endpoint: median survival time, dose: 25.0 mg/kg/injection, schedule: Q01DX009 (ip), vehicle: other) 101 % of control. Also, the T/C (endpoint: median survival time, dose: 25.0 mg/kg/injection, schedule: Q01DX009 (ip), vehicle: water) was 164 % of control.
As for `CC([NH-])C[NH-].[Cl][Pt+2][Cl]` (stereo not drawn), the T/C was 105 % of control (endpoint: mean survival time, dose: 0.31 mg/kg/injection, schedule: Q01DX009 (ip), vehicle: saline with Tween-80); 107 % of control (endpoint: mean survival time, dose: 0.62 mg/kg/injection, schedule: Q01DX009 (ip), vehicle: saline with Tween-80); 112 % of control (endpoint: mean survival time, dose: 1.25 mg/kg/injection, schedule: Q01DX009 (ip), vehicle: saline with Tween-80); 105 % of control (endpoint: mean survival time, dose: 2.5 mg/kg/injection, schedule: Q01DX009 (ip), vehicle: saline with Tween-80); 115 % of control (endpoint: mean survival time, dose: 2.5 mg/kg/injection, schedule: Q04DX003 (ip), vehicle: saline with Tween-80); 86 % of control (endpoint: mean survival time, dose: 5.0 mg/kg/injection, schedule: Q01DX009 (ip), vehicle: saline with Tween-80). Further, for the setting “endpoint: mean survival time, dose: 5.0 mg/kg/injection, schedule: Q04DX003 (ip), vehicle: saline with Tween-80”, the T/C is 115 % of control.
Turning to `O=C(O)/C=N/NS(=O)(=O)Cc1ccccc1`, the T/C is 102 % of control (endpoint: mean survival time, dose: 12.5 mg/kg/injection, schedule: Q04DX003 (ip), vehicle: other); 113 % of control (endpoint: mean survival time, dose: 25.0 mg/kg/injection, schedule: Q04DX003 (ip), vehicle: other); 117 % of control (endpoint: mean survival time, dose: 50.0 mg/kg/injection, schedule: Q04DX003 (ip), vehicle: other); 117 % of control (endpoint: mean survival time, dose: 100.0 mg/kg/injection, schedule: Q04DX003 (ip), vehicle: other); 122 % of control (endpoint: mean survival time, dose: 200.0 mg/kg/injection, schedule: Q04DX003 (ip), vehicle: other); 111 % of control (endpoint: mean survival time, dose: 400.0 mg/kg/injection, schedule: Q04DX003 (ip), vehicle: other).
`CC(=O)Nc1ccc(N=NN(C)C)cc1`: the T/C (endpoint: mean survival time, dose: 4.68 mg/kg/injection, schedule: Q01DX009 (ip), vehicle: Klucel (hydroxypropylcellulose) (HPC)) is 106 % of control and 109 % of control; the T/C (endpoint: mean survival time, dose: 9.37 mg/kg/injection, schedule: Q01DX009 (ip), vehicle: Klucel (hydroxypropylcellulose) (HPC)) was 114 % of control and 116 % of control.
In the case of `NC(=O)c1ccccc1C(=O)O`, the T/C is, setting by setting: (endpoint: mean survival time, dose: 100.0 mg/kg/injection, schedule: Q01DX001 (ip), vehicle: saline) 105 % of control; (endpoint: mean survival time, dose: 200.0 mg/kg/injection, schedule: Q01DX001 (ip), vehicle: saline) 102 % of control; (endpoint: mean survival time, dose: 400.0 mg/kg/injection, schedule: Q01DX001 (ip), vehicle: saline) 94 % of control.
On to `CC(N)(CCO)C(=O)O` (stereo not drawn), for which the T/C was 97 % of control (endpoint: mean survival time, dose: 100.0 mg/kg/injection, schedule: Q01DX009 (ip), vehicle: saline sonified); 101 % of control under setting [2]; 104 % of control (endpoint: mean survival time, dose: 200.0 mg/kg/injection, schedule: Q01DX009 (ip), vehicle: saline sonified); 101 % of control under setting [3]; 103 % of control (endpoint: mean survival time, dose: 400.0 mg/kg/injection, schedule: Q01DX009 (ip), vehicle: saline sonified); 98 % of control under setting [4].
For the compound `CC1CCCCC1O` (stereo not drawn), the T/C was 97 % of control (endpoint: mean survival time, dose: 50.0 mg/kg/injection, schedule: Q01DX001 (ip), vehicle: carboxymethylcellulose (CMC)); 103 % of control (endpoint: mean survival time, dose: 50.0 mg/kg/injection, schedule: Q01DX009 (ip), vehicle: saline with Tween-80); 108 % of control (endpoint: mean survival time, dose: 100.0 mg/kg/injection, schedule: Q01DX001 (ip), vehicle: carboxymethylcellulose (CMC)); 103 % of control under setting [5]; 103 % of control under setting [6]; 92 % of control (endpoint: mean survival time, dose: 200.0 mg/kg/injection, schedule: Q01DX001 (ip), vehicle: carboxymethylcellulose (CMC)). The T/C runs as follows: under setting [7], 95 % of control; (endpoint: mean survival time, dose: 200.0 mg/kg/injection, schedule: Q04DX003 (ip), vehicle: saline) 103 % of control; (endpoint: mean survival time, dose: 400.0 mg/kg/injection, schedule: Q01DX001 (ip), vehicle: carboxymethylcellulose (CMC)) 100 % of control; (endpoint: mean survival time, dose: 400.0 mg/kg/injection, schedule: Q04DX003 (ip), vehicle: saline) 95 % of control.
`CCCCCCCC(=O)Nc1cc(C(F)(F)F)ccc1Cl`: the T/C by setting is: under setting [5], 93 % of control; under setting [7], 96 % of control; under setting [8], 94 % of control.
For `CC(C)NC(=O)C1CC2c3cccc4c3C(CN4)CC2N(C)C1` (stereo not drawn), the T/C is 98 % of control (endpoint: mean survival time, dose: 12.5 mg/kg/injection, schedule: Q04DX002 (ip), vehicle: saline with Tween-80); 95 % of control (endpoint: mean survival time, dose: 25.0 mg/kg/injection, schedule: Q04DX002 (ip), vehicle: saline with Tween-80); 98 % of control (endpoint: mean survival time, dose: 50.0 mg/kg/injection, schedule: Q04DX002 (ip), vehicle: saline with Tween-80).
Take `CNC(=O)Oc1c(Cl)c(C(Cl)(Cl)Cl)nc2ccccc12`: the T/C is 96 % of control under setting [1]; 97 % of control (endpoint: mean survival time, dose: 50.0 mg/kg/injection, schedule: Q04DX003 (ip), vehicle: saline with Tween-80); 89 % of control under setting [2].
As for `CCCCCCCCCCCCCCCCCCC#N`, the T/C by setting is: under setting [5], 100 % of control; under setting [2], 92 % of control; under setting [7], 96 % of control; under setting [3], 98 % of control; under setting [8], 93 % of control; under setting [4], 95 % of control.
On to `Fc1c(F)c(F)[c]([Ge]([c]2c(F)c(F)c(F)c(F)c2F)([c]2c(F)c(F)c(F)c(F)c2F)[c]2c(F)c(F)c(F)c(F)c2F)c(F)c1F`, for which the T/C under setting [5] was 97 % of control; the T/C under setting [2] is 86 % of control; the T/C under setting [7] is 92 % of control; the T/C under setting [3] is 91 % of control; the T/C under setting [8] is 91 % of control; the T/C under setting [4] was 93 % of control.
Turning to `O=C(CBr)Nc1cc([N+](=O)[O-])ccc1O`, the T/C is, setting by setting: (endpoint: mean survival time, dose: 6.25 mg/kg/injection, schedule: Q01DX009 (ip), vehicle: saline with Tween-80) 91 % of control; (endpoint: mean survival time, dose: 12.5 mg/kg/injection, schedule: Q01DX009 (ip), vehicle: saline with Tween-80) 98 % of control.
With `CC(=O)OCC1OC(n2cnc3c(NC(=O)c4ccccc4)ncnc32)C(OC(C)=O)C1OC(C)=O` (stereo not drawn), the T/C was 93 % of control (endpoint: mean survival time, dose: 12.5 mg/kg/injection, schedule: Q01DX005 (ip), vehicle: distilled water + Tween-80); 100 % of control (endpoint: mean survival time, dose: 25.0 mg/kg/injection, schedule: Q01DX005 (ip), vehicle: distilled water + Tween-80); 88 % of control (endpoint: mean survival time, dose: 50.0 mg/kg/injection, schedule: Q01DX005 (ip), vehicle: distilled water + Tween-80); 94 % of control (endpoint: mean survival time, dose: 100.0 mg/kg/injection, schedule: Q01DX005 (ip), vehicle: distilled water + Tween-80).
For the compound `CN(C)c1ccc(C=C(c2ccc(N)cc2)c2ccc(N)cc2)cc1`, the T/C was 91 % of control under setting [5], 92 % of control under setting [7] and 94 % of control under setting [8].
With `CCC(C)OC(=O)Nc1cccc(OC(=O)N(C)C)c1` (stereo not drawn), the T/C is 97 % of control under setting [2], 97 % of control under setting [3] and 100 % of control under setting [4].
Consider `CNC(=O)c1ccc[n+](CC(=O)NCc2ccccc2)c1`, for which the T/C under setting [6] was 107 % of control.
